Measurements: article PMC6747274, “Multifunctional Peptides from Spanish Dry-Cured Pork Ham: Endothelial Responses and Molecular Modeling Studies” (International Journal of Molecular Sciences, 2019)
Where no end group is shown, it is not given here.

Experiments:
[1] = tested on: ICAM-1 surface expression, EA.hy926 cells; assay: ICAM-1 surface expression by flow cytometry (MFI); assay type: cell-based, human; conditions: for ICAM-1 surface density (in words): 300 µM peptide + TNF-α vs TNF-α activated cells, all p < 0.05; for ICAM-1 MFI: preincubation with 300 µM peptide, then 100 ng/mL TNF-α, six independent experiments, mean ± SD, p vs TNF-α: BP1 0.03, BP2 0.009, BP3 0.09, BP4 0.04, control 71.36 ± 8.31
Method: EA.hy926 cells, the hybrid human umbilical vein endothelial cell line, were obtained from the American Type Culture Collection (ATCC® CRL2922™, Rockville, MD, USA). Cells were cultured in high glucose Dulbecco’s Modified Eagle’s Medium (DMEM), containing 10% heat-inactivated fetal bovine serum (FBS, Biowest, Riverside, CA, USA) and 50 U/mL of penicillin and 50 µg/mL streptomycin (Sigma Aldrich Chemical Co., Saint Louis, MO, USA). Cells were grown in 5% CO2 in a humidified air incubator at 37 °C. Subculture was performed when 90% confluence was reached.
(§1) EA.hy926 were seeded in six-well plates at 0.25 × 10^6 cells/well in DMEM supplemented with 5% FBS. Cells were treated with 300 µM of each peptide for 16 h. Then, 100 ng/mL TNF-α or 300 µM H2O2 were added for an additional 6 h or 24 h, respectively.
To measure adhesion molecule content in human endothelial cells by flow cytometry, the cell monolayer was detached and fixed before immunofluorescence labelling. The following antibodies were used per sample: 20 µL anti-ICAM-1/CD54-phycoerythrin (PE) (clone HA58, BD Biosciences, Franklin Lakes, NJ, USA) and 5 µL anti-VCAM-1/CD106-PerCP-Cy5.5 (clone 51–10C9; BD Biosciences, San Jose, CA, USA), according to the manufacturer’s protocol. Stained cells (10,000 events) were examined by flow cytometry (FACS Calibur, Becton Dickinson, Mountain View, CA, USA) in a simultaneous two-color analysis with FL2 (PE) and FL3 (PerCP-Cy5.5) channels. Markers were set according to the negative controls to quantify the percentage of positively stained cells. Mean Fluorescence Intensity (MFI) was calculated for each antigen (MFI of total stained cells-MFI of negative control cells).

EA.hy926 cells = assay: Annexin V / propidium iodide apoptosis and necrosis by FACS; assay type: cell-based, human; conditions: preincubation with 300 µM peptide, then 300 µM H2O2; three independent experiments, mean ± SD; NS vs H2O2 alone
Method: as §1
ApoScreen Annexin V Apoptosis Kit-FITC (Southern Biotech, Birmingham, AL, USA) was used to detect the apoptosis rate. After the co-incubation of synthetic peptides and 300 µM H2O2, 0.4 × 10^6 cells were detached and washed in cold PBS, then resuspended in 100 µL Annexin V binding buffer and treated following the manufacturer’s protocol. Annexin V-fluorescein isothiocyanate (FITC) binding was assessed in FL1 channel simultaneously with propidium iodide (FL2 channel). This test discriminates among intact cells (FITC−/PI−), apoptotic cells (FITC+/PI−), and necrotic cells (FITC+/PI+). Assays were performed in triplicate (Table S1).

purified rabbit ACE = purified rabbit ACE in vitro; read-out: IC50, purified rabbit ACE (given as ACE inhibitory concentration); cited from earlier work
Text: Numerous reports have identified stable peptides with high ACE-inhibitory activity from pork dry-cured ham after gastrointestinal digestion. Four of them were synthetized chemically (KPVAAP, KAAAATP, KPGRP, and AAATP) for the current experimental studies with human endothelial cells.

Row | Substance | ICAM-1 surface density (in words) [1] | ICAM-1 MFI [1] | Apoptosis (AnV+/PI-), % cells (EA.hy926 cells) [%] | Necrosis (AnV+/PI+), % cells (EA.hy926 cells) [%] | IC50 (purified rabbit ACE) [µM]
1 | AAATP [BP4] | reduced ICAM-1 surface density | 926.01 ± 152.46 | 12.16 ± 1.86 | 18.42 ± 6.34 | 100
2 | KAAAATP [BP2] | reduced ICAM-1 surface density | 1064.42 ± 32.02 | 14.47 ± 2.42 | 19.58 ± 0.18 | 25.6
